Source: article PMC3380929 (PLoS Pathogens, 2012)
Entries after “also recorded” stand apart in the source; their conditions may differ. Positions of bridges follow the written chain, without caps; N, C: chain ends. Residues, ends and D or L forms follow the SMILES beside them.

Columns and labels:
[1] = test system: PfAMA1 from 3D7, CAMP, FVO and HB3; experiment: SPR binding compared across PfAMA1 strains; set-up: species or system P. falciparum
Description: (§1) (ii) P. pastoris expression: Synthetic genes were optimized for PfAMA1 coding of residues 97–442, from strains 3D7 (Genbank accession number U33274), CAMP (accession number M34552) and HB3 (accession number U33277). Potential N-glycosylation sites were mutated and genes were cloned EcoRI-KpnI in the pPicZalpha A vector (Invitrogen), resulting in an 11-residues sequence extension followed by myc-epitope and hexa-His tags at the C-terminus), expressed in P. pastoris, and purified as described. Yield after purification was approximately 20 mg per L of culture. PfAMA1 FVO (residues 25–545, no tags, accession number AJ277646) was produced as described before. The DiCo3 protein was modified compared to the published protein [23]; it includes the PfAMA1 FVO prodomain (amino acids 25–96) and one additional mutation to minimize proteolytic cleavage Lys376–>Arg (B. Faber, unpublished results). The PfAMA1 3D7mut (Ile225–>Asn, residues 25–545, no tags) mutant was generated by site-directed mutagenesis (Genscript) and produced in P. pastoris in a similar fashion to the native protein [29].
A 39-residue peptide corresponding to residues 2021 to 2059 of PfRON2 (PfRON2sp1) was synthesized by Kinexus (Vancouver, Canada) and disulfide cyclized. Lyophilized PfRON2sp1 was solubilized in 100% DMSO and subsequently diluted in HBS (20 mM HEPES pH 7.5, 150 mM NaCl) for use in co-crystallization and functional studies. Peptides PfRON2sp2 (residues 2027 to 2054) and R1 were synthesized by PolyPeptide (Strasbourg, France) and solubilized in 3.5% DMSO for subsequent use.
SPR measurements were made with a Biacore 2000 instrument (Biacore AB). AMA1 proteins diluted in 10 mM sodium acetate pH 4.5 for 3D7, CAMP, HB3 and FVO strains, or pH 4.0 for 3D7mut and Dico3, were covalently immobilized by an amine-coupling procedure on CM5 sensor chips (GE Healthcare). The reference flow cell was prepared by the same procedure in absence of protein. […]

[2] = molecular target: PfAMA1 from strain 3D7 (Plasmodium falciparum, UniProt Q7KQK5); experiment: SPR binding to immobilized recombinant PfAMA1 3D7; set-up: species or system P. falciparum (strain 3D7); conditions: ratio PfRON2sp1 vs PfRON2sp2, SPR
Description: as §1
(§2) A 39-residue peptide corresponding to residues 2021 to 2059 of PfRON2 (PfRON2sp1) was synthesized by Kinexus (Vancouver, Canada) and disulfide cyclized. […]

[3] = molecular target: PfAMA1 from strain CAMP; experiment: SPR binding to immobilized recombinant PfAMA1 CAMP; set-up: species or system P. falciparum (strain CAMP); conditions: SPR Biacore 2000, AMA1 immobilized on CM5, 25°C, PBS and 0.005% Tween 20, steady-state model (Req extrapolated), mean ± SD, at least three independent experiments, read-out: Apparent equilibrium dissociation constant KD
Description: as §1, §2

[4] = test system: P. falciparum 3D7; experiment: Red blood cell invasion assay, P. falciparum 3D7; type: cell-based, P. falciparum (strain 3D7); conditions: peptides 0.2 to 20 µM, parasitemia of IRBC 16 hours post-invasion, N = 3
Experimental: (§3) The P. falciparum cell cultures and the invasion assays were performed as described previously. Briefly, highly synchronized P. falciparum 3D7 and HB3 schizonts (1.5% hematocrit, 1.5% parasitemia) were incubated with R1 or PfRON2sp1 peptides. Blood smears were collected 16 hours post-invasion and used for ring-stage parasites counting. The results presented are representative of three independent experiments, each performed in triplicate.

[5] = test system: P. falciparum 3D7 or HB3; experiment: Red blood cell invasion assay, cross-strain (3D7 and HB3); type: cell-based, P. falciparum (strains 3D7 and HB3); conditions: for Cross-strain reactivity of invasion inhibition: 3D7 or HB3, peptides 0.2 to 20 µM, 16 hours post-invasion, N = 3; for Inhibition of erythrocyte invasion: P. falciparum merozoites, in words
Experimental: as §3

[6] = molecular target: PfAMA1 3D7 (Plasmodium falciparum, UniProt Q7KQK5); experiment: Isothermal titration calorimetry of R1 with PfAMA1 3D7; type: binding, P. falciparum (strain 3D7); conditions: ITC200, PfAMA1 3D7 (P. pastoris) 0.6 µM, R1 55 µM, PBS, 25°C, 1∶1 interaction model
Experimental: ITC measurements were made using a ITC200 calorimeter (MicroCal). PfAMA1 3D7 (P. pastoris) and peptide R1 were diluted in PBS to final concentrations of 0.6 µM and 55 µM, respectively. PfAMA1 3D7 (initial volume 200 µL) was titrated at 25°C by consecutive injections of the peptide R1 (2 µL aliquots at 3 min intervals). Raw data were normalized and corrected for the heat of dilution of R1 in PBS. Binding stoichiometry was determined by fitting the final data to a 1∶1 interaction model using the Origin7 software (OriginLab).

[7] = molecular target: PfAMA1 HB3 (residues 97-442), P. pastoris expression (Plasmodium falciparum (strain HB3)); experiment: SPR; Biacore 2000; PfAMA1 (3D7, CAMP, HB3, FVO) amine-coupled on CM5 at pH 4.5; PfRON2sp peptides injected; 25°C, PBS with 0.005% Tween 20, 5 µL/min; apparent KD from a steady-state model, Req extrapolated
[8] = molecular target: PfAMA1 FVO (residues 25-545, no tags) (Plasmodium falciparum (strain FVO)); experiment: as above
[9] = molecular target: PfAMA1 3D7 (residues 97-442), P. pastoris expression (Plasmodium falciparum (strain 3D7)) (UniProt Q7KQK5); experiment: as above
[10] = molecular target: PfAMA1 CAMP (residues 97-442), P. pastoris expression (Plasmodium falciparum (strain CAMP)) (UniProt P50489); experiment: as above
[11] = molecular target: the molecule itself; experiment: crystal structure

CC[C@H](C)[C@H](NC(=O)[C@H](CC(=O)O)NC(=O)[C@H](CCCCN)NC(=O)[C@H](C)NC(=O)[C@H](CCC(N)=O)NC(=O)[C@H](CCC(N)=O)NC(=O)[C@@H](NC(=O)[C@@H](NC(=O)[C@@H](N)CC(=O)O)[C@@H](C)CC)[C@@H](C)O)C(=O)NCC(=O)N[C@@H](C)C(=O)NCC(=O)N1CCC[C@H]1C(=O)N[C@H](C(=O)N[C@@H](C)C(=O)N[C@@H](CO)C(=O)N[C@H]1CSSC[C@@H](C(=O)N[C@@H](CC(C)C)C(=O)N[C@@H](CC(N)=O)C(=O)N[C@@H](CO)C(=O)N[C@H](C(=O)N[C@H](C(=O)N[C@@H](CC(N)=O)C(=O)N[C@H](C(=O)N[C@@H](C)C(=O)N[C@@H](CC(C)C)C(=O)N[C@@H](CO)C(=O)O)[C@@H](C)O)C(C)C)C(C)C)NC(=O)[C@H]([C@@H](C)CC)NC(=O)[C@H](CCC(N)=O)NC(=O)[C@H](CCC(N)=O)NC(=O)[C@@H]2CCCN2C(=O)[C@@H]2CCCN2C(=O)[C@H](CO)NC(=O)[C@H](CCSC)NC(=O)[C@H](CCCNC(=N)N)NC(=O)[C@H]([C@@H](C)O)NC(=O)[C@H]([C@@H](C)O)NC(=O)[C@H](Cc2ccccc2)NC1=O)C(C)C [PfRON2sp1]
Affinity for PfAMA1 relative to R1 peptide ([1]; all the PfAMA1 proteins tested, SPR, compared with R1): higher affinity than for R1 peptide | Affinity to PfAMA1 ([1]; in words): very high affinity to PfAMA1 | Affinity of PfAMA1 from 3D7 for PfRON2sp1 higher than for PfRON2sp2 [2]: 25 fold | Kd [3]: 14.6 ± 3.8 nM | Inhibition of red blood cell invasion relative to R1 peptide [4]: higher capacity to inhibit red cell invasion; also recorded: higher inhibitory efficiency | Cross-strain reactivity of invasion inhibition [5]: cross-strain inhibition of invasion; also recorded: cross-strain reactivity; also recorded: not strain specific | Cross-strain reactivity of invasion inhibition ([5]; listed as PfRON2 peptide): strong inhibitory potency is not affected by AMA1 polymorphisms | Inhibition of erythrocyte invasion [5]: very efficient at inhibiting invasion | Inhibition of erythrocyte invasion ([5]; listed as PfRON2 peptide): inhibits erythrocyte invasion

CC[C@H](C)[C@H](NC(=O)[C@H](CC(=O)O)NC(=O)[C@@H](N)CCCCN)C(=O)NCC(=O)N[C@@H](C)C(=O)NCC(=O)N1CCC[C@H]1C(=O)N[C@H](C(=O)N[C@@H](C)C(=O)N[C@@H](CO)C(=O)N[C@H]1CSSC[C@@H](C(=O)N[C@@H](CC(C)C)C(=O)N[C@@H](CC(N)=O)C(=O)N[C@@H](CO)C(=O)N[C@H](C(=O)N[C@H](C(=O)N[C@@H](CC(N)=O)C(=O)O)C(C)C)C(C)C)NC(=O)[C@H]([C@@H](C)CC)NC(=O)[C@H](CCC(N)=O)NC(=O)[C@H](CCC(N)=O)NC(=O)[C@@H]2CCCN2C(=O)[C@@H]2CCCN2C(=O)[C@H](CO)NC(=O)[C@H](CCSC)NC(=O)[C@H](CCCNC(=N)N)NC(=O)[C@H]([C@@H](C)O)NC(=O)[C@H]([C@@H](C)O)NC(=O)[C@H](Cc2ccccc2)NC1=O)C(C)C [PfRON2sp2] (H-KDIGAGPVASCFTTRMSPPQQICLNSVVN-OH; disulfide 11-23; N-terminus and C-terminus assumed)
Difference in affinity of PfAMA1 3D7 and CAMP homologs ([1]; 3D7 vs CAMP, SPR): no significant difference in the affinity | Kd [3]: 165 ± 42 nM

CC[C@H](C)[C@H](NC(=O)[C@H](Cc1cnc[nH]1)NC(=O)[C@H](CCSC)NC(=O)[C@H](CCCNC(=N)N)NC(=O)[C@H](CO)NC(=O)CNC(=O)[C@H](Cc1ccccc1)NC(=O)[C@H](CCCCN)NC(=O)[C@H](CO)NC(=O)[C@H](Cc1ccccc1)NC(=O)[C@H](CC(C)C)NC(=O)[C@@H]1CCCN1C(=O)[C@H](CC(C)C)NC(=O)[C@H](Cc1ccccc1)NC(=O)[C@H](CCC(=O)O)NC(=O)[C@H](C)NC(=O)[C@H](Cc1ccccc1)NC(=O)[C@@H](N)C(C)C)C(=O)N[C@@H](CC(C)C)C(=O)N[C@@H](CCCCN)C(=O)O [R1] (H-VFAEFLPLFSKFGSRMHILK-OH)
Kd [6]: 145 nM

PfRON2sp1 (PfRON2 residues 2021-2059) (peptide)
Kd [7]: 18.3 nM | Kd [8]: 9.2 nM | Kd [9]: 20.3 nM | Kd [10]: 14.6 nM

PfRON2sp2 (PfRON2 residues 2027-2055) (peptide)
Kd [7]: 680 nM | Kd [8]: 80 nM | Kd [9]: 520 nM | Kd [10]: 165 nM

VFAEFLPLFSKFGSRMHILK (source: synthetic peptide (PolyPeptide)) [invasion-inhibitory peptide R1]
binding result [11]: binds
